“Also recorded” adds a separate entry of the source.
Test system: Mycobacterium obuense type strain ATCC 27023
Test: Growth of Mycobacterium obuense on Middlebrook 7H11 medium with different Dapsone concentrations
Procedure: Mycobacterium obuense type strain ATCC 27023 was grown Middlebrook 7H11 medium comprising different concentrations of Dapsone™.

## Nc1ccc(S(=O)(=O)c2ccc(N)cc2)cc1 [Dapsone ™, 4,4′-Diaminodiphenyl sulfone]
Experiment 2 part a, 5 μg Dapsone/ml Middlebrook 7H11 medium
  Observed growth: 3 smooth colonies
Experiment 2 part a, 10 μg Dapsone/ml Middlebrook 7H11 medium
  Observed growth: no growth
Experiment 2 part a, 20 μg Dapsone/ml Middlebrook 7H11 medium
  Observed growth: no growth
Experiment 2 part a, 40 μg Dapsone/ml Middlebrook 7H11 medium
  Observed growth: no growth
Experiment 2 part a, 50 μg Dapsone/ml Middlebrook 7H11 medium
  Observed growth: no growth
Experiment 2 part b, 3 μg Dapsone/ml Middlebrook 7H11 medium
  Observed growth: confluent smooth colonies
Experiment 2 part b, 4 μg Dapsone/ml Middlebrook 7H11 medium
  Observed growth: small smooth colonies
Experiment 2 part b, 5 μg Dapsone/ml Middlebrook 7H11 medium
  Observed growth: small smooth colonies
Experiment 2 part c, 5 μg Dapsone/ml Middlebrook 7H11 medium
  Observed growth: few rough colonies,; also recorded: mostly smooth colonies
Experiment 2 part c, 7.5 μg Dapsone/ml Middlebrook 7H11 medium
  Observed growth: few rough colonies,; also recorded: mostly smooth colonies
Experiment 2 part c, 10 μg Dapsone/ml Middlebrook 7H11 medium
  Observed growth: mostly rough colonies
Experiment 2 part c, 12 μg Dapsone/ml Middlebrook 7H11 medium
  Observed growth: mostly rough colonies

— patent US8512694B2, “Method of producing rough strains of bacteria and uses thereof” (priority 2005, dated 2013)
